From ChEMBL document CHEMBL2413072, “Synthesis and in vitro anticancer studies of novel C-2 arylidene congeners of lantadenes” (2013)

Assays:
Format in all cases: functional
[1] = Growth inhibition of human HCC2998 cells by sulforhodamine B assay
NCI-H522 = experiment: Growth inhibition of human NCI-H522 cells by sulforhodamine B assay
NCI-H23 = experiment: Growth inhibition of human NCI-H23 cells by sulforhodamine B assay
HOP-62 = experiment: Growth inhibition of human HOP62 cells by sulforhodamine B assay
UACC-62 = experiment: Growth inhibition of human UACC62 cells assessed as cell growth at 10^-8 M by sulforhodamine B assay; conditions: read-out: Activity
MDA-MB-435 = experiment: Growth inhibition of human MDA-MB-435 cells assessed as cell growth at 10^-8 M by sulforhodamine B assay; conditions: read-out: Activity
SNB-75 = experiment: Growth inhibition of human SNB75 cells assessed as cell growth at 10^-8 M by sulforhodamine B assay; conditions: read-out: Activity
BT-549 = experiment: Growth inhibition of human BT549 cells by sulforhodamine B assay
PC-3 = experiment: Growth inhibition of human PC3 cells by sulforhodamine B assay
RXF 393 = experiment: Growth inhibition of human RXF393 cells by sulforhodamine B assay
A498 = experiment: Growth inhibition of human A498 cells by sulforhodamine B assay
[2] = read-out: LC50 (the source's name)
[3] = read-out: pLC50 (the source's name) (converted)

CC1(C)C[C@@H](O)[C@]2(C(=O)O)CC[C@]3(C)C(=CC[C@@H]4[C@@]5(C)C/C(=C\C=C\c6ccccc6)C(=O)C(C)(C)[C@@H]5CC[C@]43C)[C@@H]2C1
GI50 ([1]; HCC 2998, read-out: GI50): 2.95 µM | CC50 ([1]; HCC 2998, read-out: LC50 (the source's name)): 27.9 µM | TGI ([1]; HCC 2998, read-out: TGI): 7.55 µM | GI50 ([1]; HCC 2998, read-out: pGI50 (converted)): 2.95 µM | CC50 ([1]; HCC 2998, read-out: pLC50 (the source's name) (converted)): 28.2 µM | TGI ([1]; HCC 2998, read-out: pTGI (converted)): 7.59 µM | GI50 (NCI-H522; read-out: GI50): 2.46 µM | CC50 (NCI-H522; [2]): 29.4 µM | TGI (NCI-H522; read-out: TGI): 6.9 µM | GI50 (NCI-H522; read-out: pGI50 (converted)): 2.45 µM | CC50 (NCI-H522; [3]): 29.5 µM | TGI (NCI-H522; read-out: pTGI (converted)): 6.92 µM | GI50 (NCI-H23; read-out: GI50): 3.28 µM | CC50 (NCI-H23; [2]): 43.2 µM | TGI (NCI-H23; read-out: TGI): 12.3 µM | GI50 (NCI-H23; read-out: pGI50 (converted)): 3.31 µM | CC50 (NCI-H23; [3]): 43.7 µM | TGI (NCI-H23; read-out: pTGI (converted)): 12.3 µM | GI50 (HOP-62; read-out: GI50): 4.72 µM | LC50 (concentration killing 50% of cells) (HOP-62; read-out: LC50): 83.5 µM | TGI (HOP-62; read-out: TGI): 21.2 µM | GI50 (HOP-62; read-out: pGI50 (converted)): 4.68 µM | LC50 (concentration killing 50% of cells) (HOP-62; read-out: pLC50 (converted)): 83.2 µM | TGI (HOP-62; read-out: pTGI (converted)): 21.4 µM | growth at 0.01 µM (UACC-62): 96% | growth at 0.01 µM (MDA-MB-435): 98% | growth at 0.01 µM (SNB-75): 89% | GI50 (BT-549; read-out: GI50): 3.84 µM | CC50 (BT-549; [2]): 55.9 µM | TGI (BT-549; read-out: TGI): 14.8 µM | GI50 (BT-549; read-out: pGI50 (converted)): 3.8 µM | CC50 (BT-549; [3]): 56.2 µM | TGI (BT-549; read-out: pTGI (converted)): 14.8 µM | GI50 (PC-3; read-out: GI50): 3.03 µM | CC50 (PC-3; [2]): 63.7 µM | TGI (PC-3; read-out: TGI): 16.3 µM | GI50 (PC-3; read-out: pGI50 (converted)): 3.02 µM | CC50 (PC-3; [3]): 63.1 µM | TGI (PC-3; read-out: pTGI (converted)): 16.2 µM | GI50 (RXF 393; read-out: GI50): 2.65 µM | CC50 (RXF 393; [2]): 29.7 µM | TGI (RXF 393; read-out: TGI): 7.65 µM | GI50 (RXF 393; read-out: pGI50 (converted)): 2.63 µM | CC50 (RXF 393; [3]): 29.5 µM | TGI (RXF 393; read-out: pTGI (converted)): 7.59 µM | GI50 (A498; read-out: GI50): 2.55 µM | CC50 (A498; [2]): 35.2 µM | TGI (A498; read-out: TGI): 11.6 µM
